Measured values: EP1698638A1, “Lipopeptides having pharmaceutical activity” (Technische Universität Berlin, priority 2005, dated 2006)

Tests used:
Format in all cases: cell-based
Aspergillus fumigatus = experiment: serial dilution test, minimum inhibitory concentration (MIC); conditions: RPMI-1640 medium, 35 °C, 48 h
Procedure: (§1) The antifungal activity of the compounds according to the present invention, in particular hassallidin A and hassallidin B, was verified for Aspergillus fumigatus and Candida albicans by minimum inhibitory concentration (MIC) data in a serial dilution test. For each fungus six testing wells of a microtiter plate were prepared with 240 µL medium (Sigma RPMI-1640), 10 µL inoculum suspension and 50 µL fungicide solution (50% MeOH) of different concentrations. Inoculum preparation was carried out by guideline of NCCLS.^25 The fungicide solution preparation took place in a series of twofold dilutions from a stock solution of 92 µg/mL starting with 4.6 µg/50 µL down to 0.14 µg/50 µL. One well was prepared without antifungal agent for unhindered growth as control. The microtiter plates were incubated for Candida albicans and Aspergillus fumigatus at 35 °C for 24 h and 48 h, respectively. Tests were run in triplicates. Inhibition of growth was assessed by comparing the fungal growth of the test samples with the control well by determination of optical density at 595 nm in a microplate reader. The concentration of the well at highest dilution that was still free from growth was assigned the minimum inhibitory concentration (MIC in µg/mL). […] No activities were observed by using Bacillus subtilis, Streptomyces versicolor or Escherchia coli in disk diffusion assays on LB-agar plates with 10 µg hassallidin A in 30 µL 50% MeOH per disk.

Candida albicans = experiment: as above; conditions: RPMI-1640 medium, 35 °C, 24 h
Procedure: as §1

Bacillus subtilis = experiment: disk diffusion assay on LB-agar plates; conditions: 10 µg in 30 µL 50% MeOH per disk
Procedure: as §1

Escherchia coli = experiment: disk diffusion assay on LB-agar plates; conditions: 10 µg in 30 µL 50% MeOH per disk
Procedure: as §1

Streptomyces versicolor = experiment: disk diffusion assay on LB-agar plates; conditions: 10 µg in 30 µL 50% MeOH per disk
Procedure: as §1

[1] = tested on: Acremonium strictum RKI 226/03; experiment: microdilution assay (NCCLS), inhibitory concentration (IC); conditions: RPMI-1640 medium
Procedure: (§2) More specifically, a determination of inhibitory concentration (IC) of hassallidin A and hassallidin B for various fungi, Candida species and Candida strains were performed with different media (RPMI-1640 or SAB or AM3) in a microdilution assay by following the guidelines in NCCLS documents M^38-P^25 and M27-A2^26 carried out as follows Each substance was dissolved with 100% dimethyl sulfoxide (Serva, Heidelberg, Germany) to give a stock solution of 3.2 mg/ml followed by nine log2 dilution steps with the solvent. This served as a 100-fold concentrated dilution series ranging from 1.6 mg/ml to 0.003 mg/ml of the test substance. The final concentration of the test substance was 16 µg/ml to 0.031 µg/ml.
(§3) Therefore the 100-fold concentrated dilution series (with 100% DMSO) was diluted to the final concentration by two dilution steps: • (1) Each concentration of the 100-fold concentrated substance was diluted with test medium for 1:50 (for ex.: adding of 13 µl of the test substance to 637 µl test medium). • (2) 100 µl of each 1:50 diluted concentration was filled in a row of wells of a microtitre plate. One well was without the substance but with the 1:50 diluted solvent serving as growth control.
(§4) A further 1:2 dilution of the antifungal was made by the inoculation of each well with 100 µl of the test organism, which was suspended in the test medium. The remaining well of the row was used for sterility control of the medium. The inoculum was strictly prepared according the NCCLS^25 guidelines, resulting in […] for Candida-species and Cryptococcus neoformans. For hyphomycetes CFU's were tenfold higher (see NCCLS). ^26 The growth of the hyphomycetes respectively the inhibition was measured by visual reading with the help of a reading mirror; scoring was done according to NCCLS :^26 score 0 corresponds to a optical clear well or an IC95 or higher, score 1 corresponds to an inhibition of 80 percent (IC80) and the score 2 of the NCCLS definition corresponds to the IC50 values in the tables. The growth of the yeasts was measured spectrophotometrically by a microplate reader (MR 5000, Dynatech laboratories) at 630 nm displaying the optical density (OD). The percent inhibition IC50, IC80 or IC95 (corresponding the scores of 2, 1 and 0) was calculated by the following formula: (100−[(ODof the well−ODof the medium)] × 100)/((ODof the growth control−ODof the medium).) [formula] Table 3. Test series for determining IC values of hassallidin A and B in different media using Candida albicans and Candida krusei. The IC values were measured after 24 h and 48 h at 30 °C.

[2] = tested on: Aspergillus fumigatus RKI 584/00; experiment: as above; conditions: RPMI-1640 medium
Procedure: as §2, §3, §4

[3] = tested on: Aspergillus fumigatus RKI 914/02; experiment: as above; conditions: RPMI-1640 medium
Procedure: as §2, §3, §4

[4] = tested on: Candida albicans ATCC 90028; experiment: as above; conditions: RPMI-1640 medium
Procedure: as §2, §3, §4

Candida spp. II = experiment: as above; conditions: RPMI-1640 medium
Procedure: as §2, §3, §4

Candida spp. I = experiment: as above; conditions: RPMI-1640 medium
Procedure: as §2, §3, §4

[5] = tested on: Fusarium solani RKI 144/03; experiment: as above; conditions: RPMI-1640 medium
Procedure: as §2, §3, §4

[6] = tested on: Fusarium solani RKI 233/04; experiment: as above; conditions: RPMI-1640 medium
Procedure: as §2, §3, §4

hassallidin B
MIC (Aspergillus fumigatus): 4.8 µg/mL
MIC (Candida albicans): 4.8 µg/mL

hassallidin A
MIC (Aspergillus fumigatus): 4.8 µg/mL
MIC (Candida albicans): 4.8 µg/mL
activity in disk diffusion assay (Bacillus subtilis): No activities
activity in disk diffusion assay (Escherchia coli): No activities
activity in disk diffusion assay (Streptomyces versicolor): No activities
IC50 ([1]; 30°C/24h): 4 to 8 µg/mL
IC80 ([1]; 30°C/24h): 16 µg/mL
IC95 ([1]; 30°C/24h): 16 µg/mL
IC50 ([1]; 30°C/48h): >16 µg/mL
IC80 ([1]; 30°C/48h): > 16 µg/mL
IC95 ([1]; 30°C/48h): > 16 µg/mL
IC50 ([2]; 35°C/24h): 2 µg/mL
IC80 ([2]; 35°C/24h): 2 µg/mL
IC95 ([2]; 35°C/24h): 2 µg/mL
IC80 ([2]; 35°C/48h): 4 µg/mL
IC95 ([2]; 35°C/48h): 4 µg/mL
IC50 ([3]; 35°C/24h): 2 µg/mL
IC80 ([3]; 35°C/24h): 2 µg/mL
IC95 ([3]; 35°C/24h): 2 µg/mL
IC50 ([3]; 35°C/48h): 2 µg/mL
IC80 ([3]; 35°C/48h): 2 µg/mL
IC95 ([3]; 35°C/48h): 4 µg/mL
IC50 ([4]; 35°C/24h): 8 µg/mL
IC80 ([4]; 35°C/24h): 8 µg/mL
IC95 ([4]; 35°C/24h): 8 µg/mL
IC50 ([4]; 35°C/48h): 8 µg/mL
IC80 ([4]; 35°C/48h): 8 µg/mL
IC95 ([4]; 35°C/48h): 8 µg/mL
IC50 (Candida spp. II; 35°C/24h): 8 µg/mL
IC80 (Candida spp. II; 35°C/24h): 8 µg/mL
IC95 (Candida spp. II; 35°C/24h): 8 µg/mL
IC50 (Candida spp. II; 35°C/48h): 8 µg/mL
IC80 (Candida spp. II; 35°C/48h): 8 µg/mL
IC95 (Candida spp. II; 35°C/48h): 8 µg/mL
IC50 (Candida spp. I; 35°C/24h): 8 µg/mL
IC80 (Candida spp. I; 35°C/24h): 8 µg/mL
IC95 (Candida spp. I; 35°C/24h): 8 µg/mL
IC50 (Candida spp. I; 35°C/48h): 8 µg/mL
IC80 (Candida spp. I; 35°C/48h): 8 µg/mL
IC95 (Candida spp. I; 35°C/48h): 8 µg/mL
IC50 ([5]; 30°C/24h): 16 µg/mL
IC80 ([5]; 30°C/24h): 16 µg/mL
IC95 ([5]; 30°C/24h): >16 µg/mL
IC50 ([5]; 30°C/48h): >16 µg/mL
IC80 ([5]; 30°C/48h): >16 µg/mL
IC95 ([5]; 30°C/48h): >16 µg/mL
IC50 ([6]; 30°C/24h): 16 µg/mL
IC80 ([6]; 30°C/24h): 16 µg/mL
IC95 ([6]; 30°C/24h): >16 µg/mL
IC50 ([6]; 30°C/48h): >16 µg/mL
IC80 ([6]; 30°C/48h): >16 µg/mL
IC95 ([6]; 30°C/48h): >16 µg/mL
